Values joined by “and” are separate entries in the source; they are usually repeats but may differ in a detail not shown here. Equal values may be shown once.
Tests used:
[1] = Rat PET imaging (micro-PET/CT); assay type: in vivo; conditions: female CD-1 rats, images at 15, 30, 60 min
Procedure: The radioligand [^18F] II-15 (0.3 mL, 200 μCi) was injected into bodies of female CD-1 rats (180-200 g) in a manner of tail vein injection, then the rats were anesthetized with 3% isoflurane to be coma, and the rats were fixed in a prone posture on a micro-PET/CT imaging instrument (Super Argus PET 4R L/CT 180) for small animals, maintaining the rats in an anesthetic state by employing 1% isoflurane in the scanning imaging process. Image acquisition was carried out respectively 15 min, 30 min and 60 min after the administration, to observe the distribution condition of [^18F] II-15 in the brains of the rats.

[2] = In vivo distribution experiment in animals; conditions: for brain/blood ratio / Absorption Amount, blood / Absorption Amount, bone / Absorption Amount, brain / Absorption Amount, heart / Absorption Amount, kidney / Absorption Amount, liver / Absorption Amount, lung / Absorption Amount, muscle / Absorption Amount, spleen: female Kunming mice; for Absorption Amount, blood / Absorption Amount, bone / Absorption Amount, brain / Absorption Amount, heart / Absorption Amount, kidney / Absorption Amount, liver / Absorption Amount, lung / Absorption Amount, muscle / Absorption Amount, spleen: tail vein

## O=C1c2cc(N3CCN4CCC3CC4)ccc2-c2cccc([18F])c21 [[^18F] II-15]
[1]
  time of highest brain uptake in PET images: 15 min
[2]; 5-90 min, mice
  in vivo defluorination phenomenon (bone absorption): relatively weaker
[2]; 5 min
  brain/blood ratio: 6.23
  Absorption Amount, blood: 1.43 ± 0.06 % ID/g wet weight
  Absorption Amount, bone: 3.02 ± 0.11 % ID/g wet weight
  Absorption Amount, brain: 8.98±0.41 % ID/g wet weight
  Absorption Amount, heart: 8.37 ± 0.14 % ID/g wet weight
  Absorption Amount, kidney: 15.92 ± 0.24 % ID/g wet weight
  Absorption Amount, liver: 8.19 ± 1.19 % ID/g wet weight
  Absorption Amount, lung: 70.52 ± 7.86 % ID/g wet weight
  Absorption Amount, muscle: 5.51 ± 0.65 % ID/g wet weight
  Absorption Amount, spleen: 7.72 ± 0.65 % ID/g wet weight
[2]; 15 min
  brain/blood ratio: 9.57 and 9.35
  Absorption Amount, blood: 1.24 ± 0.16 % ID/g wet weight
  Absorption Amount, bone: 4.55 ± 0.68 % ID/g wet weight
  Absorption Amount, brain: 11.60±0.14 % ID/g wet weight
  Absorption Amount, heart: 4.45 ± 0.62 % ID/g wet weight
  Absorption Amount, kidney: 11.54 ± 0.79 % ID/g wet weight
  Absorption Amount, liver: 12.28 ± 1.96 % ID/g wet weight
  Absorption Amount, lung: 20.23 ± 1.51 % ID/g wet weight
  Absorption Amount, muscle: 3.48 ± 0.40 % ID/g wet weight
  Absorption Amount, spleen: 11.58 ± 0.92 % ID/g wet weight
[2]; 30 min
  brain/blood ratio: 9.57
  Absorption Amount, blood: 1.03 ± 0.07 % ID/g wet weight
  Absorption Amount, bone: 4.84 ± 0.18 % ID/g wet weight
  Absorption Amount, brain: 9.86 ± 0.05 % ID/g wet weight
  Absorption Amount, heart: 3.56 ± 0.31 % ID/g wet weight
  Absorption Amount, kidney: 8.06 ± 0.69 % ID/g wet weight
  Absorption Amount, liver: 13.74 ± 1.36 % ID/g wet weight
  Absorption Amount, lung: 18.30 ± 1.56 % ID/g wet weight
  Absorption Amount, muscle: 2.36 ± 0.30 % ID/g wet weight
  Absorption Amount, spleen: 8.67 ± 0.48 % ID/g wet weight
[2]; 60 min
  brain/blood ratio: 8.03
  Absorption Amount, blood: 0.68 ± 0.01 % ID/g wet weight
  Absorption Amount, bone: 7.27 ± 1.31 % ID/g wet weight
  Absorption Amount, brain: 5.46±0.27 % ID/g wet weight
  Absorption Amount, heart: 2.19 ± 0.16 % ID/g wet weight
  Absorption Amount, kidney: 4.85 ± 0.443 % ID/g wet weight
  Absorption Amount, liver: 9.74 ± 0.07 % ID/g wet weight
  Absorption Amount, lung: 7.64 ± 0.99 % ID/g wet weight
  Absorption Amount, muscle: 1.79 ± 0.06 % ID/g wet weight
  Absorption Amount, spleen: 4.08 ± 0.38 % ID/g wet weight
[2]; 90 min
  brain/blood ratio: 6.98
  Absorption Amount, blood: 0.52 ± 0.06 % ID/g wet weight
  Absorption Amount, bone: 7.65 ± 0.52 % ID/g wet weight
  Absorption Amount, brain: 3.63±0.25 % ID/g wet weight
  Absorption Amount, heart: 1.71 ± 0.13 % ID/g wet weight
  Absorption Amount, kidney: 4.26 ± 0.19 % ID/g wet weight
  Absorption Amount, liver: 7.46 ± 0.19 % ID/g wet weight
  Absorption Amount, lung: 4.99 ± 0.45 % ID/g wet weight
  Absorption Amount, muscle: 1.32 ± 0.11 % ID/g wet weight
  Absorption Amount, spleen: 2.97 ± 0.25 % ID/g wet weight

Source: patent publication US20200147243A1, “LIGAND COMPOUND OF ALPHA7 NICOTINIC ACETYLCHOLINE RECEPTOR AND APPLICATION THEREOF” (BEIJING NORMAL UNIVERSITY, priority 2017, published 2020)
